According to patent US8445441B2, “Inhibitors of BCL-2” (Case Western Reserve University, priority 2007, dated 2013):

Columns and labels:
Assay type in all cases: cell-based
Jurkat cells [1] = assay: anti-CD3-induced Ca2+ elevation by digital imaging
Description: (§1) FIGS. 6A-D illustrates peptide 2 (SEQ ID NO:3) Reverses Bcl-2's Inhibition of Anti-CD3-Induced Ca^2+Elevation. (A) Representative Ca^2+ traces (each the mean of ˜65 cells) recording anti-CD3 (arrow, time of addition)-induced Ca^2+ elevation in Bcl-2(+) WEHI7.2 cells. Peptide (60 μM) uptake was facilitated by Chariot reagent. (B) Peak anti-CD3 induced Ca^2+ elevation in Bcl-2(−) and Bcl-2(+) WEHI7.2 cells treated with peptides as in (A) [mean±SEM, five experiments for Bcl-2(−) and seven experiments for Bcl-2(+) cells, with mean 68 cells per sample per experiment]. (C) Representative Ca^2+ traces in Jurkat cells (mean 85 cells each). Treatment conditions are the same as in (A), except that a control involving addition of peptide 2 without Chariot reagent has been added. (D) Peak anti-CD3-induced Ca^2+ elevation in Jurkat cells treated with peptides as in (C) (mean±SEM, seven experiments, mean 81 cells per sample per experiment).
(§2) Next we investigated whether peptide 2 also reverses Bcl-2's inhibitory effect on Ca^2+ release through the IP3R in Bcl-2(+) and (−) WEHI7.2 clones, newly derived WEHI7.2 mixed populations exogenously expressing Bcl-2, and Jurkat cells. Optimal conditions for peptide delivery and anti-CD3 concentration were determined in preliminary experiments. Peptide delivery in the lipid bilayer is 100%, whereas the penetration of peptide 2 into cells is much less, accounting for the lesser effect in cells. Therefore, a higher concentration of peptide (60 μM) was delivered into cells using the Chariot delivery reagent. Cytoplasmic Ca^2+ concentration was continuously measured at a single-cell level by digital imaging during anti-CD3 treatment. Representative Ca^2+ traces from Bcl-2(+) WEHI7.2 cells are shown in FIG. 6A, and the average Ca^2+ elevation induced by anti-CD3 in seven experiments is summarized in FIG. 6B. Observed variations in lag phase are at least partially attributable to the fact that lymphocytes are only loosely adherent to coverslips and thus rapid buffer exchange is not possible during antibody additions. Peptide 2 enhanced anti-CD3-induced Ca^2+ elevation in Bcl-2(+) WEHI7.2 cells by 40%. […] Peptide 2 had no effect on Ca^2+ elevation when added to the cells in the absence of the Chariot reagent. […] The low Bcl-2 level in Jurkat cells and the barely detectable endogenous Bcl-2 in Bcl-2(−) WEHI7.2 cells are consistent with the higher amplitude and longer duration of the Ca^2+ response in these cells in contrast to Bcl-2(+) WEHI7.2 cells (compare FIGS. 6A and 6B to FIGS. 6C and 6D). Thus, peptide 2 modulated anti-CD3-induced Ca^2+ elevation in both Bcl-2(+) WEHI7.2 cells and Jurkat cells, consistent with the ability of peptide 2 to disrupt Bcl-2-IP3R interaction.

WEHI7.2 cells = assay: anti-CD3-induced Ca2+ elevation by digital imaging; conditions: 60 μM peptide with Chariot reagent
Description: as §1, §2

Jurkat cells [2] = assay: Fas-induced Ca2+-independent apoptosis
Jurkat cells [3] = assay: IP3 ester-induced Ca2+ elevation; conditions: D-myo InsP3 hexakisbutyryloxymethyl ester
Source text: To exclude the possibility that peptide 2 may interfere with the upstream TCR activation pathway, a cell-permeant IP3 ester (D-myo InsP3 hexakisbutyryloxymethyl ester) was used to bypass TCR activation and anti-CD3-induced IP3 generation.

[4] = system: primary chronic lymphocytic leukemia cells; assay: cell killing by trypan blue dye exclusion, combination with ABT737; conditions: primary CLL cells, peptide combined with ABT737, 24 hours
Source text: FIG. 10 illustrates a graph comparing the cell death percentage of chronic lymphocytic leukemia cells treated with combinations of ABT-737 and a peptide comprising SEQ ID NO: 3 and controls.
FIG. 11 illustrates a graph comparing the cell death percentage of chronic lymphocytic leukemia cells treated with ABT-737, a peptide comprising SEQ ID NO: 3, combinations thereof, and controls.
To test this hypothesis, we performed the experiments summarized below. […] Additions were made to CLL cells and cell death measured 24 hours later.

[5] = system: murine embryonic fibroblasts (MEFs); assay: unidirectional 45Ca2+ flux, IP3-induced efflux; conditions: in the presence of thapsigargin
Source text: The conclusion that peptide 2 acts directly on the Bcl-2-IP3R interaction is supported not only by experiments described above (FIG. 5) in which peptide 2 reversed Bcl-2-mediated inhibition of IP3R channel opening in vitro, but also by unidirectional ^45Ca^2+ flux experiments that allow for very accurate quantification of Ca^2+ release through IP3Rs located on the ER. These experiments require firmly adherent cells, and therefore murine embryonic fibroblasts (MEFs), which have a somewhat lower level of endogenous Bcl-2 than Jurkat cells, were employed. The rate of IP3-induced ^45Ca^2+ efflux was measured in the presence of thapsigargin, which completely prevents ER Ca^2+ reuptake.

NVYTEIKCNSLLPLDDIVRV (listed as Homo sapiens) [peptide 2, 20 amino acid peptide, aa 1389-1408 of IP3R subdomain 3a1]
enhancement of anti-CD3-induced Ca2+ elevation (Jurkat cells [1]; Jurkat cells with endogenous Bcl-2 knocked down by siRNA): did not enhance | enhancement of anti-CD3-induced Ca2+ elevation (Jurkat cells [1]; Jurkat cells, 60 μM peptide with Chariot reagent): significantly enhanced | effect on intracellular Ca2+ levels (Jurkat cells [1]; absence of anti-CD3 stimulation (data not shown)): did not affect | effect on Ca2+ elevation (Jurkat cells [1]; peptide added in the absence of Chariot reagent): no effect | enhancement of anti-CD3-induced Ca2+ elevation (WEHI7.2 cells; Bcl-2(+) WEHI7.2 cells): 40% | effect on anti-CD3-induced Ca2+ elevation (WEHI7.2 cells; Bcl-2(−) WEHI7.2 cells): did not have a significant effect | enhancement of Fas-induced Ca2+-independent apoptosis (Jurkat cells [2]): did not enhance | IP3 ester-induced Ca2+ elevation (Jurkat cells [3]): enhanced | cell death induction by ABT737 [4]: enhances cell death induction | rate of IP3-induced 45Ca2+ efflux [5]: significantly increased
